# Results published in patent publication US4659712A, “Fodder additive and a process for the preparation” (Richter Gedeon Vegyeszeti Gyar Rt., priority 1984, dated 1987).
# Where “and” joins values, the source holds several entries; their conditions need not be identical. Identical values can stand only once. Entries after “also recorded” stand apart in the source; their conditions may differ.
# What was measured:
# [1] = tested on: polysubstrate monooxygenase enzyme system of the liver; assay: Induction of the polysubstrate monooxygenase enzyme system of the liver
# [2] = Quinoxaline-2-carboxylic acid (Carbadox metabolite) residue in pig muscle (ham, chop), liver and kidney after flumecinol treatment; format: in vivo, pigs; set-up: key to amount of quinoxaline-2-carboxylic acid / quinoxaline-2-carboxylic acid content of the muscle tissue / quinoxaline-2-carboxylic acid content of the liver / quinoxaline-2-carboxylic acid content of the kidney: .0.: no detectable amount; details: for quinoxaline-2-carboxylic acid content of the kidney / quinoxaline-2-carboxylic acid content of the liver / quinoxaline-2-carboxylic acid content of the muscle tissue: average, n = 3; for amount of quinoxaline-2-carboxylic acid: individual animal
# Protocol: (§1) Tests were carried out at a large-scale pig farm, where 25 mg/kg of body weight of Carbadox admixed with the fodder of the pigs were administered to pigs having a live weight of 40 kg. From a population fed with this fodder 27 animals, each weighing exactly 40 kg, were selected, by weighing them separately. The selected animals were railed off in a place suitable for further tests. From this time on (zero time) the animals were given the same fodder as before, except Carbadox.
# (§2) The 27 animals were divided into three groups as follows:
# (§3) Group I: 12 animals (ser. Nos. from 1 to 12) slaughtering: three animals each when starting the experiment (0 time) and on the 1st, 5th and 15th days (positive control group) Group II: 9 amimals (ser. Nos. from 13 to 21) treatment: a single 40 mg/kg of body weight dose of flumecinol at zero time. slaughtering: three animals each on the 1st, 5th and 15th days (group treated with a single dose of flumecinol) Group III: 6 animals (ser. Nos. 22 to 27) treatment: 40 mg/kg of body weight of flumecinol for three days, at zero time and on the 1st and 2nd day slaughtering: three animals each on the 5th and 15th days (group treated with flumecinol three times) Flumecinol is available as a micropellet containing 19.02% of active ingredient. From this and a 1% starch hydrolysate a suspension is prepared, containing 40 mg of flumecinol per 1 ml (dose used for one kg of body weight). The active compound was administered 8 o'clock in the morning, without previous fasting, through a stomach tube, in order to ensure exact conditions for the experiments. The animals were killed and samples were taken from 8 to 11 o'clock in the morning, whereupon the samples were transported into the analytical laboratory within one hour, under cooling.
# (§4) Quinoxaline-2-carboxylic acid (a metabolite of Carbadox) was determined in the chop, liver and kidney tissues of three animals from each group. Each muscle and liver sample was subjected to organoleptic examination also (boiling test).
# The quantity of quinoxaline-2-carboxylic acid was determined essentially following the method described in the USDA Chemistry Laboratory Guidebook (5007 Determination of Carbadox):
# Following the alkaline hydrolysis of the muscle, liver and kidney samples, the hydrolysates were strongly acidified and the quinoxaline-2-carboxylic acid was extracted with ethyl acetate. The pH of the ethyl acetate extract was adjusted to 6 with a citric acid buffer, whereupon the mixture was extracted with benzene. In the next step the acid was esterified with a mixture of n-propanol and sulfuric acid, to yield propyl quinoxaline-2-carboxylate. The quantity of the latter compound was determined (after purification by thin layer chromatography) by gas chromatography. This cumbersome test procedure was always performed together with a […] control sample to which a known amount (0.2 μg-1.0 μg) of quinoxaline-2-carboxylic acid (standard) was added. The percentage of the active ingredient recovered from this sample was taken into account when calculating the residual active substance amount. In this way the error of the process was eliminated.
# The test results, if not otherwise indicated, are given in μg/kg.
# The quantity of quinoxaline-2-carboxylic acid in the above-specified slaughtering times is shownn in Table 1. The tests were carried out on three animals and Table 1 contains the results obtained on the individual animals. The results were also statistically evaluated for the various sorts of tissues, although in this specific case this was not really necessary, since according to the valid prescriptions the products of animal origin should not contain Carbadox at all, i.e. the limit is zero. Therefore, we considered it more important to determine when the animal tissues become entirely Carbadox-free, than to observe the differences among the tissues of the various groups of animals in the time when they were killed.
# [3] = Organoleptic examination (boiling test) of muscle and liver tissues of pigs treated with Carbadox and flumecinol; format: in vivo; set-up: key to visual observation / organoleptic (odor) score: 1: negative; 2: slight strange (indeterminable) odor; 3: some strange (slight medicamentlike) odor; 4: definite strange (more expressed medicament) odor; details: for visual observation / organoleptic (odor) score: individual animal
# Protocol: as §1, §2, §3, §4
# [4] = one treatment 40 mg/kg, 1st day
# [5] = one treatment 40 mg/kg, 1st day, chop
# [6] = one treatment 40 mg/kg, 1st day, ham
# [7] = one treatment 40 mg/kg, 5th day
# [8] = one treatment 40 mg/kg, 5th day, chop
# [9] = one treatment 40 mg/kg, 5th day, ham
# [10] = one treatment 40 mg/kg, 15th day
# [11] = one treatment 40 mg/kg, 15th day, chop
# [12] = one treatment 40 mg/kg, 15th day, ham
# [13] = one treatment 40 mg/kg, 1st day, liver
# [14] = one treatment 40 mg/kg, 5th day, liver
# [15] = one treatment 40 mg/kg, 15th day, liver
# [16] = three treatments 40 mg/kg, 5th day
# [17] = three treatments 40 mg/kg, 5th day, chop
# [18] = three treatments 40 mg/kg, 5th day, ham
# [19] = three treatments 40 mg/kg, 15th day
# [20] = three treatments 40 mg/kg, 15th day, chop
# [21] = three treatments 40 mg/kg, 15th day, ham
# [22] = three treatments 40 mg/kg, 5th day, liver
# [23] = three treatments 40 mg/kg, 15th day, liver
compound,measurement,setting,value
"CCC(O)(c1ccccc1)c1cccc(C(F)(F)F)c1 (centres unmarked) [flumecinol, 1-(3-trifluoromethylphenyl)-1-(phenyl)-propan-1-ol]",induction of the polysubstrate monooxygenase enzyme system,[1],specific inductor of the polysubstrate monooxygenase enzyme system
same,residue in muscle tissues and kidney,"[2]; 40 mg/kg daily for three subsequent days, 5th day",free of residue on the 5th day
same,residue in kidney (so in the source),"[2]; 40 mg/kg daily for three subsequent days, 15th day",free of residue on the 15th day
same,residual quinoxaline-2-carboxylic acid in muscle,"[2]; 5th day after termination of Carbadox, one or three treatments",no residual quinoxaline-2-carboxylic acid could be detected
same,residual Carbadox in muscle vs. control,"[2]; Group II, one dose, 24 hours after treatment",significantly lower than in the control animals slaughtered at the same time
same,residue in the kidney,"[2]; addition in three subsequent days, kidney, 5th and 15th day",no residue was detected either on the 5th or on the 15th day
same,quinoxaline-2-carboxylic acid elimination from the muscle tissue,"[2]; flumecinol treatment, muscle",significant acceleration of quinoxaline-2-carboxylic acid elimination from the muscle tissue
same,quinoxaline-2-carboxylic acid content of the kidney,[2]; [4],30.67 µg/kg
same,quinoxaline-2-carboxylic acid content of the liver,[2]; [4],64.67 µg/kg
same,quinoxaline-2-carboxylic acid content of the muscle tissue,[2]; [5],5.33 µg/kg
same,quinoxaline-2-carboxylic acid content of the muscle tissue,[2]; [6],1.33 µg/kg
same,quinoxaline-2-carboxylic acid content of the muscle tissue,"[2]; one treatment 40 mg/kg, 1st day, total",3.33 µg/kg
same,quinoxaline-2-carboxylic acid content of the kidney,[2]; [7],10.00 µg/kg
same,quinoxaline-2-carboxylic acid content of the liver,[2]; [7],12.00 µg/kg
same,quinoxaline-2-carboxylic acid content of the muscle tissue,[2]; [8],.0.
same,quinoxaline-2-carboxylic acid content of the muscle tissue,[2]; [9],.0.
same,quinoxaline-2-carboxylic acid content of the muscle tissue,"[2]; one treatment 40 mg/kg, 5th day, total",.0.
same,quinoxaline-2-carboxylic acid content of the kidney,[2]; [10],.0.
same,quinoxaline-2-carboxylic acid content of the liver,[2]; [10],7.33 µg/kg
same,quinoxaline-2-carboxylic acid content of the muscle tissue,[2]; [11],.0.
same,quinoxaline-2-carboxylic acid content of the muscle tissue,[2]; [12],.0.
same,quinoxaline-2-carboxylic acid content of the muscle tissue,"[2]; one treatment 40 mg/kg, 15th day, total",.0.
same,amount of quinoxaline-2-carboxylic acid,[2]; [5],4 µg/kg and 6 µg/kg
same,amount of quinoxaline-2-carboxylic acid,[2]; [6],4 µg/kg
same,amount of quinoxaline-2-carboxylic acid,"[2]; one treatment 40 mg/kg, 1st day, ham, symbol",.0.
same,amount of quinoxaline-2-carboxylic acid,"[2]; one treatment 40 mg/kg, 1st day, kidney",38 µg/kg and 30 µg/kg and 24 µg/kg
same,amount of quinoxaline-2-carboxylic acid,[2]; [13],58 µg/kg and 64 µg/kg and 72 µg/kg
same,amount of quinoxaline-2-carboxylic acid,[2]; [8],.0.
same,amount of quinoxaline-2-carboxylic acid,[2]; [9],.0.
same,amount of quinoxaline-2-carboxylic acid,"[2]; one treatment 40 mg/kg, 5th day, kidney",10 µg/kg and 8 µg/kg and 12 µg/kg
same,amount of quinoxaline-2-carboxylic acid,[2]; [14],10 µg/kg and 12 µg/kg and 14 µg/kg
same,amount of quinoxaline-2-carboxylic acid,[2]; [11],.0.
same,amount of quinoxaline-2-carboxylic acid,[2]; [12],.0.
same,amount of quinoxaline-2-carboxylic acid,"[2]; one treatment 40 mg/kg, 15th day, kidney",.0.
same,amount of quinoxaline-2-carboxylic acid,[2]; [15],8 µg/kg and 6 µg/kg
same,metabolite residue in liver,"[2]; single 40 mg/kg dose, liver, 15th day, 40 mg/kg",can be detected even on the 15th day; also recorded: could be still detected on the 15th day
same,"amount of quinoxaline-2-carboxylic acid in liver, decrease","[2]; single 40 mg/kg dose, liver, each measuring point",significant decrease in the amount of quinoxaline-2-carboxylic acid at each measuring point
same,residue in the kidney vs. control,"[2]; single dose, kidney, 1st and 5th days",essentially identical with the values obtained in the control group
same,residue in the kidney,"[2]; single dose, kidney, 15th day",no reside can be detected
same,"metabolite residue in liver, time of detection","[2]; three subsequent treatments, liver",a metabolite residue can be identified on the 5th day only
same,metabolite residue in liver vs. control and single dose,"[2]; three subsequent treatments, liver, 5th day",substantially lower amount than in the control animals or in the group treated with a single dose of flumecinol
same,quinoxaline-2-carboxylic acid content of the kidney,[2]; [16],.0.
same,quinoxaline-2-carboxylic acid content of the liver,[2]; [16],6.00 µg/kg
same,quinoxaline-2-carboxylic acid content of the muscle tissue,[2]; [17],.0.
same,quinoxaline-2-carboxylic acid content of the muscle tissue,[2]; [18],.0.
same,quinoxaline-2-carboxylic acid content of the muscle tissue,"[2]; three treatments 40 mg/kg, 5th day, total",.0.
same,quinoxaline-2-carboxylic acid content of the kidney,[2]; [19],.0.
same,quinoxaline-2-carboxylic acid content of the liver,[2]; [19],.0.
same,quinoxaline-2-carboxylic acid content of the muscle tissue,[2]; [20],.0.
same,quinoxaline-2-carboxylic acid content of the muscle tissue,[2]; [21],.0.
same,quinoxaline-2-carboxylic acid content of the muscle tissue,"[2]; three treatments 40 mg/kg, 15th day, total",.0.
same,amount of quinoxaline-2-carboxylic acid,[2]; [17],.0.
same,amount of quinoxaline-2-carboxylic acid,[2]; [18],.0.
same,amount of quinoxaline-2-carboxylic acid,"[2]; three treatments 40 mg/kg, 5th day, kidney",.0.
same,amount of quinoxaline-2-carboxylic acid,[2]; [22],4 µg/kg and 6 µg/kg and 8 µg/kg
same,amount of quinoxaline-2-carboxylic acid,[2]; [20],.0.
same,amount of quinoxaline-2-carboxylic acid,[2]; [21],.0.
same,amount of quinoxaline-2-carboxylic acid,"[2]; three treatments 40 mg/kg, 15th day, kidney",.0.
same,amount of quinoxaline-2-carboxylic acid,[2]; [23],.0.
same,unpleasant odor released in the tissues by Carbadox administration,[3]; flumecinol treatment,eliminates the unpleasant odor
same,visual observation / organoleptic (odor) score,[3]; [5],1
same,visual observation / organoleptic (odor) score,[3]; [6],1
same,visual observation / organoleptic (odor) score,[3]; [13],3
same,visual observation / organoleptic (odor) score,[3]; [8],1
same,visual observation / organoleptic (odor) score,[3]; [9],1
same,visual observation / organoleptic (odor) score,[3]; [14],2
same,visual observation / organoleptic (odor) score,[3]; [11],1
same,visual observation / organoleptic (odor) score,[3]; [12],1
same,visual observation / organoleptic (odor) score,[3]; [15],1
same,elimination of flumecinol from the tissue of pigs,[3]; pigs,rapidly eliminated from the tissue of pigs
same,undesired effects detected organoleptically,[3]; pigs,no undesired effects which could be detected organoleptically
same,visual observation / organoleptic (odor) score,[3]; [17],1
same,visual observation / organoleptic (odor) score,[3]; [18],1
same,visual observation / organoleptic (odor) score,[3]; [22],1
same,visual observation / organoleptic (odor) score,[3]; [20],1
same,visual observation / organoleptic (odor) score,[3]; [21],1
same,visual observation / organoleptic (odor) score,[3]; [23],1
